Literature values, collected in US20100160456A1 (priority 2007, published 2010).

Settings: after being injected with Propofol

With `CC(C)c1cccc(C(C)C)c1O` [Propofol, 2,6-diisopropylphenol] as the compound, how does the “patients with a rejection to the acute pain after injection” value read?
Its value is 80%.

Settings: known emulsion

With `CC(C)c1cccc(C(C)C)c1O` [Propofol, 2,6-diisopropylphenol] as the compound, how does the “shelf-life of the product once the ampoule is opened” value read?
Its value is “approximately 8 hours”.

Settings: incidence grade

For `C=CCC1(C(C)C#CCC)C(=O)N=C(O)N(C)C1=O` (stereo not shown) [MTOX, Methohexital], which Awakening is on record?
The Awakening was “+”.

What about the Excitation of the same compound?
The Excitation was “+”.

What about the Injection-related pain of the same compound?
The Injection-related pain was “+”.

What about the Latency of the same compound?
The Latency was “++”.

Which Awakening does the source give for `CCCC(C)C1(CC)C(=O)NC(=S)NC1=O` (stereo not shown) [TIOP, Thiopental] here?
Its Awakening is “+”.

What about the Injection-related pain of the same compound?
Its Injection-related pain is “+”.

What about the Latency of the same compound?
The Latency was “++”.

What does the source list for `CCOC(=O)c1cncn1[C@H](C)c1ccccc1` [ETOM, Etomidate]?
Delirium: +; Excitation: ++; Injection-related pain: +; Latency: +; Nausea & vomiting: +

For `CC(=O)NS(=O)(=O)c1ccc(N)cc1` [KET, Cetamide], which Delirium is on record?
The Delirium was “+++”.

What about the Excitation of the same compound?
The Excitation was “+++”.

And the Latency?
The Latency was “+”.

What about the “Nausea & vomiting” value of the same compound?
The value was “+”.

For Althesin [ALTS], which Awakening is on record?
Its Awakening is “+”.

And the Excitation?
Its Excitation is “+”.

And the Latency?
The Latency was “+”.

What about the “Nausea & vomiting” value of the same compound?
The value was “+”.

Which results are given for `CCCOC(=O)Cc1ccc(OCC(=O)N(CC)CC)c(OC)c1` [PRPN, Propanidine]?
Excitation: +; Latency: +; Nausea & vomiting: ++

With `CC(C)c1cccc(C(C)C)c1O` [Propofol, 2,6-diisopropylphenol] as the compound, how does the Awakening read?
The Awakening was “+”.

And the Injection-related pain?
Its Injection-related pain is “+++”.

What about the Latency of the same compound?
Its Latency is “++”.
